{
  "source": "PubChem BioAssay AID1259407",
  "about": "(Chemical Carcinogenesis Research Information System (CCRIS), 2018)",
  "test_system": "CCRIS mutagenicity, Ames/micronucleus/aberration tests",
  "assay": "CCRIS mutagenicity studies",
  "note": "Calls of active or inactive are those of the source. No rule for the calls is given here.",
  "data": [
    {"smiles": "CC(O)CN(C)N=O", "note": "(configuration not stated)", "values": [
      {"measurement": "mutagenic call", "setting": "Test System: AMES SALMONELLA TYPHIMURIUM, Strain/Indicator: TA100, Metabolic Activation: HAMSTER, LIVER, S-9, 3-METHYLCHOLANTHRENE, Method: PREINCUBATION", "result": "active; positive"},
      {"measurement": "mutagenic call", "setting": "Test System: AMES SALMONELLA TYPHIMURIUM, Strain/Indicator: TA100, Metabolic Activation: HAMSTER, LIVER, S-9, PHENOBARBITAL, Method: PREINCUBATION", "result": "active; positive"},
      {"measurement": "mutagenic call", "setting": "Test System: AMES SALMONELLA TYPHIMURIUM, Strain/Indicator: TA100, Metabolic Activation: HAMSTER, LIVER, S-9, Method: PREINCUBATION", "result": "active; positive"},
      {"measurement": "mutagenic call", "setting": "Test System: AMES SALMONELLA TYPHIMURIUM, Strain/Indicator: TA100, Metabolic Activation: HUMAN, LIVER, S-9, Method: PREINCUBATION", "result": "active; positive"},
      {"measurement": "mutagenic call", "setting": "Test System: AMES SALMONELLA TYPHIMURIUM, Strain/Indicator: TA100, Metabolic Activation: MONKEY, LIVER, S-9, Method: PREINCUBATION", "result": "active; positive"},
      {"measurement": "mutagenic call", "setting": "Test System: AMES SALMONELLA TYPHIMURIUM, Strain/Indicator: TA100, Metabolic Activation: MOUSE, LIVER, S-9, 3-METHYLCHOLANTHRENE, Method: PREINCUBATION", "result": "active; positive"},
      {"measurement": "mutagenic call", "setting": "Test System: AMES SALMONELLA TYPHIMURIUM, Strain/Indicator: TA100, Metabolic Activation: MOUSE, LIVER, S-9, PHENOBARBITAL, Method: PREINCUBATION", "result": "active; positive"},
      {"measurement": "mutagenic call", "setting": "Test System: AMES SALMONELLA TYPHIMURIUM, Strain/Indicator: TA100, Metabolic Activation: MOUSE, LIVER, S-9, Method: PREINCUBATION", "result": "active; positive"},
      {"measurement": "mutagenic call", "setting": "Test System: AMES SALMONELLA TYPHIMURIUM, Strain/Indicator: TA100, Metabolic Activation: NONE, Method: PREINCUBATION", "result": "inactive; negative"},
      {"measurement": "mutagenic call", "setting": "Test System: AMES SALMONELLA TYPHIMURIUM, Strain/Indicator: TA100, Metabolic Activation: RABBIT, LIVER, S-9, Method: PREINCUBATION", "result": "active; positive"},
      {"measurement": "mutagenic call", "setting": "Test System: AMES SALMONELLA TYPHIMURIUM, Strain/Indicator: TA100, Metabolic Activation: RAT, LIVER, CYTOSOL, PCB, Method: PREINCUBATION", "result": "inactive; negative"},
      {"measurement": "mutagenic call", "setting": "Test System: AMES SALMONELLA TYPHIMURIUM, Strain/Indicator: TA100, Metabolic Activation: RAT, LIVER, MICROSOMES AND CYTOSOL, PCB, Method: PREINCUBATION", "result": "active; positive"},
      {"measurement": "mutagenic call", "setting": "Test System: AMES SALMONELLA TYPHIMURIUM, Strain/Indicator: TA100, Metabolic Activation: RAT, LIVER, MICROSOMES AND G6PDH, PCB, Method: PREINCUBATION", "result": "active; positive"},
      {"measurement": "mutagenic call", "setting": "Test System: AMES SALMONELLA TYPHIMURIUM, Strain/Indicator: TA100, Metabolic Activation: RAT, LIVER, MICROSOMES, PCB, Method: PREINCUBATION", "result": "active; positive"},
      {"measurement": "mutagenic call", "setting": "Test System: AMES SALMONELLA TYPHIMURIUM, Strain/Indicator: TA100, Metabolic Activation: RAT, LIVER, S-9 (HEATED), PCB, Method: PREINCUBATION", "result": "inactive; negative"},
      {"measurement": "mutagenic call", "setting": "Test System: AMES SALMONELLA TYPHIMURIUM, Strain/Indicator: TA100, Metabolic Activation: RAT, LIVER, S-9, 3-METHYLCHOLANTHRENE, Method: PREINCUBATION", "result": "active; positive"},
      {"measurement": "mutagenic call", "setting": "Test System: AMES SALMONELLA TYPHIMURIUM, Strain/Indicator: TA100, Metabolic Activation: RAT, LIVER, S-9, PCB, Method: PREINCUBATION", "result": "active; positive"},
      {"measurement": "mutagenic call", "setting": "Test System: AMES SALMONELLA TYPHIMURIUM, Strain/Indicator: TA100, Metabolic Activation: RAT, LIVER, S-9, PHENOBARBITAL, Method: PREINCUBATION", "result": "active; positive"},
      {"measurement": "mutagenic call", "setting": "Test System: AMES SALMONELLA TYPHIMURIUM, Strain/Indicator: TA100, Metabolic Activation: RAT, LIVER, S-9, Method: PREINCUBATION", "result": "active; positive"},
      {"measurement": "mutagenic call", "setting": "Test System: AMES SALMONELLA TYPHIMURIUM, Strain/Indicator: TA100, Metabolic Activation: RAT, LIVER, S-9 WITHOUT NADP+, PCB, Method: PREINCUBATION", "result": "inactive; negative"},
      {"measurement": "mutagenic call", "setting": "Test System: AMES SALMONELLA TYPHIMURIUM, Strain/Indicator: TA100, Metabolic Activation: TOBACCO CELLS, Method: PREINCUBATION", "result": "inactive; negative"},
      {"measurement": "mutagenic call", "setting": "Test System: AMES SALMONELLA TYPHIMURIUM, Strain/Indicator: TA100, Method: PREINCUBATION", "result": "active; positive"},
      {"measurement": "mutagenic call", "setting": "Test System: CHINESE HAMSTER V-79, Strain/Indicator: V-79/OUABAIN, Metabolic Activation: HAMSTER, HEPATOCYTES, Method: CELL-MEDIATED", "result": "active; positive"}
    ]},
    {"smiles": "Cc1cccc(OCC(O)CNC(C)(C)C)c1C", "note": "(configuration not stated)", "values": [
      {"measurement": "mutagenic call", "setting": "Test System: AMES SALMONELLA TYPHIMURIUM, Strain/Indicator: TA98, Metabolic Activation: NONE, Method: STANDARD PLATE", "result": "inactive; negative"},
      {"measurement": "mutagenic call", "setting": "Test System: AMES SALMONELLA TYPHIMURIUM, Strain/Indicator: TA98, Metabolic Activation: S-9, Method: STANDARD PLATE", "result": "inactive; negative"},
      {"measurement": "mutagenic call", "setting": "Test System: AMES SALMONELLA TYPHIMURIUM, Strain/Indicator: TA100, Metabolic Activation: NONE, Method: STANDARD PLATE", "result": "inactive; negative"},
      {"measurement": "mutagenic call", "setting": "Test System: AMES SALMONELLA TYPHIMURIUM, Strain/Indicator: TA100, Metabolic Activation: S-9, Method: STANDARD PLATE", "result": "inactive; negative"},
      {"measurement": "mutagenic call", "setting": "Test System: AMES SALMONELLA TYPHIMURIUM, Strain/Indicator: TA1535, Metabolic Activation: NONE, Method: STANDARD PLATE", "result": "inactive; negative"},
      {"measurement": "mutagenic call", "setting": "Test System: AMES SALMONELLA TYPHIMURIUM, Strain/Indicator: TA1535, Metabolic Activation: S-9, Method: STANDARD PLATE", "result": "inactive; negative"},
      {"measurement": "mutagenic call", "setting": "Test System: AMES SALMONELLA TYPHIMURIUM, Strain/Indicator: TA1537, Metabolic Activation: NONE, Method: STANDARD PLATE", "result": "inactive; negative"},
      {"measurement": "mutagenic call", "setting": "Test System: AMES SALMONELLA TYPHIMURIUM, Strain/Indicator: TA1537, Metabolic Activation: S-9, Method: STANDARD PLATE", "result": "inactive; negative"},
      {"measurement": "mutagenic call", "setting": "Test System: AMES SALMONELLA TYPHIMURIUM, Strain/Indicator: TA1538, Metabolic Activation: NONE, Method: STANDARD PLATE", "result": "inactive; negative"},
      {"measurement": "mutagenic call", "setting": "Test System: AMES SALMONELLA TYPHIMURIUM, Strain/Indicator: TA1538, Metabolic Activation: S-9, Method: STANDARD PLATE", "result": "inactive; negative"},
      {"measurement": "mutagenic call", "setting": "Test System: E. COLI WP2, Strain/Indicator: WP2 UVRA, Metabolic Activation: NONE, Method: STANDARD PLATE", "result": "inactive; negative"},
      {"measurement": "mutagenic call", "setting": "Test System: E. COLI WP2, Strain/Indicator: WP2 UVRA, Metabolic Activation: S-9, Method: STANDARD PLATE", "result": "inactive; negative"}
    ]},
    {"smiles": "O=c1c2c(O)cccc2oc2cc3c(c(O)c12)[C@@H]1CCO[C@@H]1O3", "values": [
      {"measurement": "mutagenic call", "setting": "Test System: AMES SALMONELLA TYPHIMURIUM, Strain/Indicator: TA98, Metabolic Activation: RAT, LIVER, S-9, PHENOBARBITAL, Method: STANDARD PLATE", "result": "inactive; negative"},
      {"measurement": "mutagenic call", "setting": "Test System: AMES SALMONELLA TYPHIMURIUM, Strain/Indicator: TA100, Metabolic Activation: RAT, LIVER, S-9, PHENOBARBITAL, Method: STANDARD PLATE", "result": "inactive; negative"}
    ]}
  ]
}
